# According to ChEMBL document CHEMBL1201862, “PubChem BioAssay data set” (2004):
#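 Growth conditions: 96-well plates. Treatment: test compound, 48 hours, 5 concentrations. Analysis: linear interpolation between bracketing concentrations; unreached endpoints set to highest concentration. Abbreviation: GI50, concentration required for 50% inhibition of growth.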 Active and inactive are the calls of the source. No stated cut-off is given here; in the data, active = GI50 up to about 1.1 µM and inactive = higher.
# Tests used:
# Experiment in all cases: NCI tumour cell line growth inhibition, 48 h
# DU-145 = tested on: DU-145
# Hs-578T = tested on: Hs-578T
# SF-539 = tested on: SF-539
# MOLT-4 = tested on: MOLT-4
# MDA-MB-435 = tested on: MDA-MB-435
# UACC-62 = tested on: UACC-62
# SR = tested on: SR
# MDA-MB-231 = tested on: MDA-MB-231
# SW-620 = tested on: SW-620
# 786-0 = tested on: 786-0
# TK-10 = tested on: TK-10
# Malme-3M = tested on: Malme-3M
# SN12C = tested on: SN12C
# UO-31 = tested on: UO-31
# OVCAR-3 = tested on: OVCAR-3
# OVCAR-4 = tested on: OVCAR-4
# SF-295 = tested on: SF-295
# HCC 2998 = tested on: HCC 2998
# PC-3 = tested on: PC-3
# SK-MEL-28 = tested on: SK-MEL-28
# M14 = tested on: M14
# RXF 393 = tested on: RXF 393
# COLO 205 = tested on: COLO 205
# LOX IMVI = tested on: LOX IMVI
# SNB-19 = tested on: SNB-19
# KM12 = tested on: KM12
# T47D = tested on: T47D
# MCF7 = tested on: MCF7
# UACC-257 = tested on: UACC-257
# CAKI-1 = tested on: CAKI-1
# CCRF-CEM = tested on: CCRF-CEM
# EKVX = tested on: EKVX
# NCI-H23 = tested on: NCI-H23
# SK-MEL-5 = tested on: SK-MEL-5
# U-251 = tested on: U-251
# A498 = tested on: A498
# HL-60 = tested on: HL-60
# MDA-N = tested on: MDA-N
# HCT-116 = tested on: HCT-116
# HT-29 = tested on: HT-29
# A549 = tested on: A549
# K562 = tested on: K562
# NCI-H226 = tested on: NCI-H226
# SK-OV-3 = tested on: SK-OV-3
# OVCAR-5 = tested on: OVCAR-5
# NCI/ADR-RES = tested on: NCI/ADR-RES
# SF-268 = tested on: SF-268
# HCT-15 = tested on: HCT-15
# HOP-92 = tested on: HOP-92
# HOP-62 = tested on: HOP-62
# ACHN = tested on: ACHN
# RPMI-8226 = tested on: RPMI-8226
# NCI-H460 = tested on: NCI-H460
# IGROV-1 = tested on: IGROV-1
# OVCAR-8 = tested on: OVCAR-8
# NCI-H522 = tested on: NCI-H522
# SNB-75 = tested on: SNB-75
# SK-MEL-2 = tested on: SK-MEL-2
smiles,measurement,setting,value
COc1ccc(-c2ccc(C(=O)C=P(c3ccccc3)(c3ccccc3)c3ccccc3)cc2)cc1,GI50,DU-145,14.5 µM (inactive)
same,GI50,Hs-578T,23 µM (inactive)
same,GI50,SF-539,17.7 µM (inactive)
same,GI50,MOLT-4,4.59 µM (inactive)
same,GI50,MDA-MB-435,12.2 µM (inactive)
same,GI50,UACC-62,15.2 µM (inactive)
same,GI50,SR,16.2 µM (inactive)
same,GI50,MDA-MB-231,15.9 µM (inactive)
same,GI50,SW-620,14.6 µM (inactive)
same,GI50,786-0,16.7 µM (inactive)
same,GI50,TK-10,10.8 µM (inactive)
same,GI50,Malme-3M,18.7 µM (inactive)
same,GI50,SN12C,14.9 µM (inactive)
same,GI50,UO-31,3.13 µM (inactive)
same,GI50,OVCAR-3,3.41 µM (inactive)
same,GI50,OVCAR-4,7.96 µM (inactive)
same,GI50,SF-295,10.4 µM (inactive)
same,GI50,HCC 2998,1.79 µM (inactive)
same,GI50,PC-3,7.55 µM (inactive)
same,GI50,SK-MEL-28,14.8 µM (inactive)
same,GI50,M14,11.6 µM (inactive)
same,GI50,RXF 393,13.2 µM (inactive)
same,GI50,COLO 205,3.94 µM (inactive)
same,GI50,LOX IMVI,13.2 µM (inactive)
same,GI50,SNB-19,25.6 µM (inactive)
same,GI50,KM12,13.7 µM (inactive)
same,GI50,T47D,5.68 µM (inactive)
same,GI50,MCF7,10.1 µM (inactive)
same,GI50,UACC-257,17.7 µM (inactive)
same,GI50,CAKI-1,11.4 µM (inactive)
same,GI50,CCRF-CEM,5.52 µM (inactive)
same,GI50,EKVX,6.59 µM (inactive)
same,GI50,NCI-H23,18.8 µM (inactive)
same,GI50,SK-MEL-5,9.64 µM (inactive)
same,GI50,U-251,13 µM (inactive)
same,GI50,A498,12.2 µM (inactive)
same,GI50,HL-60,3.94 µM (inactive)
same,GI50,MDA-N,13.2 µM (inactive)
same,GI50,HCT-116,12.4 µM (inactive)
same,GI50,HT-29,6.05 µM (inactive)
same,GI50,A549,6.95 µM (inactive)
same,GI50,K562,5 µM (inactive)
same,GI50,NCI-H226,12.9 µM (inactive)
same,GI50,SK-OV-3,16.9 µM (inactive)
same,GI50,OVCAR-5,16.6 µM (inactive)
same,GI50,NCI/ADR-RES,13 µM (inactive)
same,GI50,SF-268,24.3 µM (inactive)
same,GI50,HCT-15,8.59 µM
same,GI50,HOP-92,4.72 µM (inactive)
same,GI50,HOP-62,17.9 µM (inactive)
same,GI50,ACHN,13.3 µM (inactive)
same,GI50,RPMI-8226,2.12 µM (inactive)
same,GI50,NCI-H460,8.13 µM (inactive)
O=C1NCN(c2ccccc2)C12CCN(CC1COc3ccccc3O1)CC2 (centres undefined) [SPIROXATRINE],GI50,DU-145,77.4 µM (inactive)
same,GI50,Hs-578T,23.5 µM (inactive)
same,GI50,SF-539,62.5 µM (inactive)
same,GI50,MOLT-4,> 100 µM (inactive)
same,GI50,MDA-MB-435,> 100 µM (inactive)
same,GI50,UACC-62,> 100 µM (inactive)
same,GI50,SR,> 100 µM (inactive)
same,GI50,MDA-MB-231,59.7 µM (inactive)
same,GI50,SW-620,> 100 µM (inactive)
same,GI50,786-0,31.6 µM (inactive)
same,GI50,TK-10,46.9 µM (inactive)
same,GI50,Malme-3M,40.6 µM (inactive)
same,GI50,SN12C,> 100 µM (inactive)
same,GI50,UO-31,50.7 µM (inactive)
same,GI50,OVCAR-3,28.6 µM (inactive)
same,GI50,OVCAR-4,33.4 µM (inactive)
same,GI50,IGROV-1,27.5 µM (inactive)
same,GI50,SF-295,33.8 µM (inactive)
same,GI50,HCC 2998,> 100 µM (inactive)
same,GI50,PC-3,51.9 µM (inactive)
same,GI50,OVCAR-8,69.3 µM (inactive)
same,GI50,SK-MEL-28,> 100 µM (inactive)
same,GI50,M14,> 100 µM (inactive)
same,GI50,NCI-H522,91.8 µM (inactive)
same,GI50,RXF 393,29.9 µM (inactive)
same,GI50,SNB-75,36.4 µM (inactive)
same,GI50,COLO 205,> 100 µM (inactive)
same,GI50,LOX IMVI,> 100 µM (inactive)
same,GI50,SNB-19,30.3 µM (inactive)
same,GI50,T47D,54 µM (inactive)
same,GI50,MCF7,> 100 µM (inactive)
same,GI50,UACC-257,36.6 µM (inactive)
same,GI50,CAKI-1,39.8 µM (inactive)
same,GI50,CCRF-CEM,> 100 µM (inactive)
same,GI50,EKVX,43.5 µM (inactive)
same,GI50,NCI-H23,44.3 µM (inactive)
same,GI50,SK-MEL-5,> 100 µM (inactive)
same,GI50,U-251,31.3 µM (inactive)
same,GI50,A498,71.6 µM (inactive)
same,GI50,HL-60,> 100 µM (inactive)
same,GI50,MDA-N,> 100 µM (inactive)
same,GI50,HCT-116,> 100 µM (inactive)
same,GI50,HT-29,> 100 µM (inactive)
same,GI50,A549,> 100 µM (inactive)
same,GI50,K562,> 100 µM (inactive)
same,GI50,NCI-H226,49.9 µM (inactive)
same,GI50,SK-OV-3,51.3 µM (inactive)
same,GI50,OVCAR-5,> 100 µM (inactive)
same,GI50,SK-MEL-2,38.4 µM (inactive)
same,GI50,NCI/ADR-RES,47.5 µM (inactive)
same,GI50,SF-268,65.2 µM (inactive)
same,GI50,HCT-15,> 100 µM
same,GI50,HOP-62,22.5 µM (inactive)
same,GI50,ACHN,84.1 µM (inactive)
same,GI50,RPMI-8226,> 100 µM (inactive)
same,GI50,NCI-H460,> 100 µM (inactive)
